Data set [1] relates to cellular uptake of 1 in HeLa Kyoto cells. Briefly: cells. To be noted: HeLa; for minimal effective concentration / IC50: HeLa Kyoto, removal, tinc 0.5 h with 1 (10 µM); for minimal effective concentration: read-out: MIC, inhibition of cellular uptake of 1; for IC50: read-out: IC50, inhibition of cellular uptake of 1. It is filed as cell-based. As to the method:
(§1) With COCs 1 and 2 as cell-penetrating reporters, a fully automated, fluorescent microscopy image-based high-content high-throughput (HCHT)[19] inhibitor screening assay was developed. HeLa cells in multiwell plates are incubated with a reporter at constant and inhibitors at varying concentrations and incubation times. Hindered reporter uptake then causes decrease of fluorescence inside of cells (Fig. 3a). Automated data analysis[19] was established to extract average fluorescence intensity per cell and, at the same time, cell viability from propidium iodide negative nuclei count (Fig. 3 and S3–S6 ^†). Standard assay conditions consisted of pre-incubation of HeLa cells with inhibitors for different periods of time, followed by the removal of inhibitors and the addition of reporters, thus excluding possible interactions between the two in the extracellular environment. In alternative co-incubation conditions, inhibitors were not removed before the addition of reporters to allow for eventual interactions between the two.
4. High-Content High-Throughput (HCHT) Inhibitor Screening
4.1. General Procedure for HCHT Inhibitor Screening
4.1.1. Pre-Incubation of Inhibitors
HeLa Kyoto cells were seeded at 1.2 ×10^4 cells/well in FluoroBrite DMEM + 10% FBS on μ-Plate 96-well Black ibiTreat sterile and kept at 37 °C with 5% CO2 overnight. Next day, serial dilutions of the inhibitors in PBS (10x final concentration), reporter 1 or 2 (100 μM in PBS) and a solution of Hoechst 33342 (100 μg/mL) and PI (10 μg/mL) in PBS were prepared freshly in a 96-well V-bottom plate. Then, cells were washed with PBS ([…]) and the media was exchanged to FluoroBrite DMEM (4 x 150 μL/well) using a plate washer (Biotek EL406®), keeping always a final volume of 135 μL/well. The inhibitor solutions from the V-bottom plate were added to the cells (15 μL/well, 10x final concentration in PBS) using an electronic multichannel pipettes to reach a final volume of 150 μL/well. Cells were incubated for the time of interest (for details of each inhibitors, see Section 4.3 and 4.4) at 37 °C with 5%
CO2. After this, cells were washed again using the plate washer and reporter solution 1 or 2 from the V-bottom plate was added (15 μL/well) using an electronic multichannel pipettes to reach a final volume of 150 μL/well and a final concentration of 10 μM, except for the control wells, where only PBS was added (15 μL/well). After 30 min of incubation at 37 °C with 5% CO2, the plate was washed again using the plate washer. Then, the solution of Hoechst 33342 and PI from V-bottom plate was added (15 μL/well) using an electronic multichannel pipettes to reach a final volume of 150 μL/well. After 15 min of incubation at 37 °C with 5% CO2, the plate was washed one last time and the cells were kept in clean FluoroBrite DMEM. During imaging, samples were kept at 37 °C with 5% CO2 in the microscope.
4.1.2. Co-Incubation of Inhibitors and Reporters […]
serial dilutions of the inhibitors in PBS (10x final concentration), reporter 1 or 2 (110 μM in […]
freshly in a 96-well V-bottom plate. Then, cells were washed with the plate washer. The inhibitor solutions from the V-bottom plate were added to the cells (15 μL/well, 10x final concentration in PBS) using an electronic multichannel pipettes to reach a final volume of 150 μL/well. Cells were incubated for the time of interest (for details of each inhibitors, see Section 4.3 and 4.4) at 37 °C with 5% CO2. Reporter solution 1 or 2 from V-bottom plate was then added (15 μL/well) using an electronic multichannel pipettes to reach a final volume of 165 μL/well and a final concentration of 10 μM 30 min before the next washing process, except for the control wells, where only PBS was added (15 μL/well). The plate was washed again using the plate washer. The solution of Hoechst 33342 and PI from V-bottom plate was added (15 μL/well) using an electronic multichannel pipettes to reach a final volume of 150 μL/well. After […]

A short description of data set [2]: Relative cell viability in HCHT screening (propidium iodide negative nuclei count). It is filed as cell-based. To be noted: human; for GI50: HeLa, removal, tinc 0.5 h with 1 (10 µM), read-out: GI50, concentration causing 50% cell growth inhibition. As to the method:
as §1
To be able to extract the fluorescent integrated intensity information (sum of the intensities of all the pixels included in the mask) from the green channel for live cell only, the image analysis pipeline contains several steps of cell filtering and selection:
1) Firstly, PI is used to stain any remaining nuclei of dead cell. In the analysis pipeline, all the “dead” nuclei are detected based on their fluorescent intensity in the PI channel (Figure […]
Fig. S4 (A) PI positive nuclei mask (fluorescent intensity threshold of 1000). (B) Overlap image of dead nuclei mask and original all cell body mask. (C) Resulting cell mask after removing any cell marked by a dead nucleus, new mask is called “Live Cell”. Scale bar: 50 μm.
2) Elimination of non-full cells from the border of the image is performed, to avoid inaccurate fluorescent integrated intensity quantification (fluorescent integrated intensity = sum of intensity of all the pixel of the object) (Figure S5).
(1 picture or pasted object on this page, not shown here)
4.3. HCHT Inhibitor Screening with ETP as Reporter […]
Relative cell viability (RV) for each condition in the presence of inhibitors were calculated using the count value of living cells by dividing the count value of living cells with addition of reporter 1, Hoechst 33342 and PI, for each set of experiments. Duplicates were performed for each condition. The resulting dependence of the relative cell viability (RVrel) to the concentration of inhibitors (cinhibitor) was plotted and fitted with Equation (S2) to retrieve the concentration causing 50% cell growth inhibition (GI50) value and the Hill coefficient (n).
RVrel = 1 / (1 + (GI50 / cinhibitor)n) (S2)
Note: Reporter 1 were not toxic for 1 h at 10 μM.S2 Also in this study, the count value of living cells with addition of reporter 1, Hoechst 33342 and PI is always similar to that of living cells with only addition of Hoechst 33342 and PI.
Relative cell viability (RV) for each condition with inhibitors were calculated using the count value of living cells by dividing the count value of living cells with addition of reporter 2, Hoechst 33342 and PI, for each set of experiments. Duplicates were performed for each condition. The resulting dependence of the relative cell viability (RVrel) to the concentration of inhibitors (cinhibitor) was plotted and fitted with Equation (S2) to retrieve the concentration causing 50% cell growth inhibition (GI50) value and the Hill coefficient (n).
Note: Reporter 2 were not toxic for 24 h at 10 μM.S3 Also in this study, the count value of living cells with addition of reporter 2, Hoechst 33342 and PI is always similar to that of living cells with only addition of Hoechst 33342 and PI.
4.4.1. Screening with Disulfides as Inhibitors
4.4.1.1. Screening with ETP as Inhibitors
Fig. S35 Automatically analyzed HCHT data showing fluorescence intensity (filled symbols) and relative viability (empty symbols) of HeLa cells after pre-incubation with 3 for 1 h (blue […]

Setting [3] is: 0.5 h, tpre 0.5 h with inhibitor.
Where [4] appears, read: GI50, concentration causing 50% cell growth inhibition.

Where two headings read alike, the source gives them in different places.

As usually defined, the IC50 is the concentration needed to halve the response being measured.

Consider `O=C(O)C1CS[S+]([O-])C1` (centres unmarked) [compound 23], for which the minimal effective concentration is 1000 µM in data set [1] (1 h, tpre 1 h with inhibitor); 1000 µM in data set [1] (2 h, tpre 2 h with inhibitor); 900 µM in data set [1] (4 h, tpre 4 h with inhibitor). In addition, the IC50 was over 2000 µM in data set [1] (tpre 1 h with inhibitor), over 2000 µM in data set [1] (tpre 2 h with inhibitor) and over 1000 µM in data set [1] (tpre 4 h with inhibitor). In addition, the results for the GI50 in data set [2] (tpre 1 h with inhibitor), in data set [2] (tpre 2 h with inhibitor) and in data set [2] (tpre 4 h with inhibitor) were over 2000 µM, 1780 ± 120 µM and 1470 ± 70 µM, respectively.

For `O=C(O)CNC(=O)c1ccc2c(c1)S[S+]([O-])S2` (centres unmarked) [compound 24], the IC50 in data set [1] (setting [3]), in data set [1] (tpre 1 h with inhibitor) and in data set [1] (tpre 2 h with inhibitor) was over 20 µM each time. For the same compound, the minimal effective concentration in data set [1] (setting [3]) was over 20 µM; in data set [1] (1 h, tpre 1 h with inhibitor), over 20 µM; in data set [1] (2 h, tpre 2 h with inhibitor), over 20 µM. The GI50 in data set [2] (tpre 0.5 h with inhibitor), in data set [2] (tpre 1 h with inhibitor) and in data set [2] (tpre 2 h with inhibitor) was over 20 µM in each case.

`C=CCS[S+]([O-])CC=C` (centres unmarked) [compound 25, allicin, reference compound]: in data set [1], the “Inhibition of uptake of reporter 1, in words” value is reported as “disappointing”. In addition, the minimal effective concentration in data set [1] (1 h, tpre 1 h with inhibitor) is over 500 µM; in data set [1] (2 h, tpre 2 h with inhibitor), over 500 µM. In addition, the IC50 in data set [1] (tpre 1 h with inhibitor) and in data set [1] (tpre 2 h with inhibitor) was over 500 µM in each case. In addition, in data set [2] (setting [4]), the GI50 at 1 h was over 500 µM. In data set [2] (setting [4]), this compound showed a GI50 at 2 h of over 500 µM.

Consider `CNC(=O)[C@H](CS[S+]([O-])C[C@H](NC(=O)OC(C)(C)C)C(=O)NC)NC(=O)OC(C)(C)C` (some centres unmarked) [compound 26], for which the “Inhibition of uptake of reporter 1, in words” value in data set [1] is “disappointing”. Also, the minimal effective concentration in data set [1] (1 h, tpre 1 h with inhibitor) is over 1000 µM. For the same compound, in data set [1] (tpre 1 h with inhibitor), the IC50 is over 1000 µM. The GI50 in data set [2] (tpre 1 h with inhibitor) was over 1000 µM.

On to `O=C(O)CCCCC1CCS[S+]1[O-]` (centres unmarked) [compound 27], for which the minimal effective concentration was over 2000 µM in data set [1] (1 h, tpre 1 h with inhibitor); over 2000 µM in data set [1] (2 h, tpre 2 h with inhibitor); over 2000 µM in data set [1] (4 h, tpre 4 h with inhibitor). Further, the IC50 in data set [1] (tpre 1 h with inhibitor), in data set [1] (tpre 2 h with inhibitor) and in data set [1] (tpre 4 h with inhibitor) was over 2000 µM each time. Also, the figures for the GI50 in data set [2] (tpre 1 h with inhibitor), in data set [2] (tpre 2 h with inhibitor) and in data set [2] (tpre 4 h with inhibitor) were over 5000 µM, over 5000 µM and 1800 ± 300 µM, respectively.

`O=C(O)C1CSSC1` [compound 28]: the minimal effective concentration was over 2000 µM in data set [1] (1 h, tpre 1 h with inhibitor); over 2000 µM in data set [1] (2 h, tpre 2 h with inhibitor); over 2000 µM in data set [1] (4 h, tpre 4 h with inhibitor). Moreover, the 50% inhibitory concentration (IC50) in data set [1] (tpre 1 h with inhibitor), in data set [1] (tpre 2 h with inhibitor) and in data set [1] (tpre 4 h with inhibitor) was over 2000 µM in each case. In addition, the GI50 in data set [2] (tpre 1 h with inhibitor), in data set [2] (tpre 2 h with inhibitor) and in data set [2] (tpre 4 h with inhibitor) was over 2000 µM throughout.

`O[C@@H]1CSSC[C@@H]1O` [compound 29]: the minimal effective concentration is over 2000 µM in data set [1] (1 h, tpre 1 h with inhibitor); over 2000 µM in data set [1] (2 h, tpre 2 h with inhibitor); over 2000 µM in data set [1] (4 h, tpre 4 h with inhibitor). Also, the IC50 in data set [1] (tpre 1 h with inhibitor), in data set [1] (tpre 2 h with inhibitor) and in data set [1] (tpre 4 h with inhibitor) was over 2000 µM throughout. Moreover, the GI50 in data set [2] (tpre 1 h with inhibitor), in data set [2] (tpre 2 h with inhibitor) and in data set [2] (tpre 4 h with inhibitor) was over 2000 µM in each case.

`O=C(O)CCCCC1CCSS1` (centres unmarked) [compound 30]: the minimal effective concentration in data set [1] (1 h, tpre 1 h with inhibitor) is over 2000 µM; in data set [1] (2 h, tpre 2 h with inhibitor), over 2000 µM; in data set [1] (4 h, tpre 4 h with inhibitor), over 2000 µM. Further, the 50% inhibitory concentration (IC50) in data set [1] (tpre 1 h with inhibitor), in data set [1] (tpre 2 h with inhibitor) and in data set [1] (tpre 4 h with inhibitor) was over 2000 µM each time. Also, the GI50 at 1 h in data set [2] (setting [4]) was over 2000 µM. In data set [2] (setting [4]), this compound yielded a GI50 at 2 h of over 2000 µM. In data set [2] (setting [4]), this compound showed a GI50 at 4 h of over 2000 µM.

Values taken from article PMC8179002, “Inhibitors of thiol-mediated uptake” (Chemical Science, 2020).
